According to ChEMBL document CHEMBL4507294, “Data for DCP probe MSD-CYP11B2” (2021):

Experiments:
[1] = biological target: Bone morphogenetic protein receptor type-1A (Homo sapiens) (UniProt P36894); conditions: Compound concentration 1000.0 nM
[2] = biological target: Serine/threonine-protein kinase Nek6 (Homo sapiens) (UniProt Q9HC98); conditions: Compound concentration 1000.0 nM
[3] = biological target: Ephrin type-B receptor 1 (Homo sapiens) (UniProt P54762); conditions: Compound concentration 1000.0 nM
[4] = biological target: Phosphatidylinositol 3-kinase C2 domain-containing subunit gamma (Homo sapiens) (UniProt O75747); conditions: Compound concentration 1000.0 nM
[5] = test system: Phosphatidylinositol 4,5-bisphosphate 3-kinase catalytic subunit alpha isoform (Homo sapiens), P42336 [H1047Y]; conditions: Compound concentration 1000.0 nM
[6] = biological target: Atypical kinase COQ8B, mitochondrial (Homo sapiens) (UniProt Q96D53); conditions: Compound concentration 1000.0 nM
[7] = test system: Mast/stem cell growth factor receptor Kit (Homo sapiens), P10721 [V559D]; conditions: Compound concentration 1000.0 nM
[8] = biological target: Mitogen-activated protein kinase kinase kinase kinase 1 (Homo sapiens) (UniProt Q92918); conditions: Compound concentration 1000.0 nM
[9] = biological target: Aurora kinase C (Homo sapiens) (UniProt Q9UQB9); conditions: Compound concentration 1000.0 nM
[10] = biological target: G protein-coupled receptor kinase 4 (Homo sapiens) (UniProt P32298); conditions: Compound concentration 1000.0 nM
[11] = biological target: cGMP-dependent protein kinase 2 (Homo sapiens) (UniProt Q13237); conditions: Compound concentration 1000.0 nM
[12] = biological target: Calcium/calmodulin-dependent protein kinase kinase 1 (Homo sapiens) (UniProt Q8N5S9); conditions: Compound concentration 1000.0 nM
[13] = biological target: Tyrosine-protein kinase Mer (Homo sapiens) (UniProt Q12866); conditions: Compound concentration 1000.0 nM
[14] = biological target: Phosphatidylinositol 4,5-bisphosphate 3-kinase catalytic subunit alpha isoform (Homo sapiens) (UniProt P42336); conditions: Compound concentration 1000.0 nM
[15] = biological target: Serine/threonine-protein kinase OSR1 (Homo sapiens) (UniProt O95747); conditions: Compound concentration 1000.0 nM
[16] = biological target: Calcium/calmodulin-dependent protein kinase type II subunit beta (Homo sapiens) (UniProt Q13554); conditions: Compound concentration 1000.0 nM
[17] = biological target: Tyrosine-protein kinase FRK (Homo sapiens) (UniProt P42685); conditions: Compound concentration 1000.0 nM
[18] = biological target: NUAK family SNF1-like kinase 1 (Homo sapiens) (UniProt O60285); conditions: Compound concentration 1000.0 nM
[19] = biological target: Dual specificity protein kinase TTK (Homo sapiens) (UniProt P33981); conditions: Compound concentration 1000.0 nM
[20] = biological target: Dual specificity tyrosine-phosphorylation-regulated kinase 1B (Homo sapiens) (UniProt Q9Y463); conditions: Compound concentration 1000.0 nM
[21] = biological target: Kappa-type opioid receptor (Homo sapiens) (UniProt P41145); conditions: Compound concentration 10.0 uM
[22] = biological target: Dual specificity mitogen-activated protein kinase kinase 4 (Homo sapiens) (UniProt P45985); conditions: Compound concentration 1000.0 nM
[23] = biological target: Dual specificity protein kinase CLK4 (Homo sapiens) (UniProt Q9HAZ1); conditions: Compound concentration 1000.0 nM
[24] = biological target: Uncharacterized serine/threonine-protein kinase SBK3 (Homo sapiens) (UniProt P0C264); conditions: Compound concentration 1000.0 nM
[25] = biological target: D(1B) dopamine receptor (Homo sapiens) (UniProt P21918); conditions: Compound concentration 10.0 uM
[26] = biological target: Serine/threonine-protein kinase 38 (Homo sapiens) (UniProt Q15208); conditions: Compound concentration 1000.0 nM
[27] = biological target: Tyrosine-protein kinase Fes/Fps (Homo sapiens) (UniProt P07332); conditions: Compound concentration 1000.0 nM
[28] = biological target: Calcium/calmodulin-dependent protein kinase type 1G (Homo sapiens) (UniProt Q96NX5); conditions: Compound concentration 1000.0 nM
[29] = biological target: Serine/threonine-protein kinase Sgk3 (Homo sapiens) (UniProt Q96BR1); conditions: Compound concentration 1000.0 nM
[30] = biological target: Cyclin-G-associated kinase (Homo sapiens) (UniProt O14976); conditions: Compound concentration 1000.0 nM
[31] = biological target: 5-hydroxytryptamine receptor 2B (Homo sapiens, UniProt P41595); conditions: Compound concentration 10.0 uM
[32] = biological target: Citron Rho-interacting kinase (Homo sapiens) (UniProt O14578); conditions: Compound concentration 1000.0 nM
[33] = test system: eIF-2-alpha kinase GCN2 (Homo sapiens), Q9P2K8 [S808G]; conditions: Compound concentration 1000.0 nM
[34] = biological target: Casein kinase I isoform alpha (Homo sapiens) (UniProt P48729); conditions: Compound concentration 1000.0 nM
[35] = biological target: Death-associated protein kinase 1 (Homo sapiens) (UniProt P53355); conditions: Compound concentration 1000.0 nM
[36] = biological target: Microtubule-associated serine/threonine-protein kinase 1 (Homo sapiens) (UniProt Q9Y2H9); conditions: Compound concentration 1000.0 nM
[37] = biological target: Casein kinase I isoform alpha-like (Homo sapiens) (UniProt Q8N752); conditions: Compound concentration 1000.0 nM
[38] = biological target: Tyrosine-protein kinase CSK (Homo sapiens) (UniProt P41240); conditions: Compound concentration 1000.0 nM
[39] = biological target: Receptor tyrosine-protein kinase erbB-3 (Homo sapiens) (UniProt P21860); conditions: Compound concentration 1000.0 nM
[40] = biological target: Histamine H1 receptor (Homo sapiens) (UniProt P35367); conditions: Compound concentration 10.0 uM
[41] = biological target: Leucine-rich repeat serine/threonine-protein kinase 2 (Homo sapiens) (UniProt Q5S007); conditions: Compound concentration 1000.0 nM
[42] = biological target: Dual specificity mitogen-activated protein kinase kinase 7 (Homo sapiens) (UniProt O14733); conditions: Compound concentration 1000.0 nM
[43] = test system: Receptor-type tyrosine-protein kinase FLT3 (Homo sapiens), P36888 [K663Q]; conditions: Compound concentration 1000.0 nM
[44] = biological target: Sigma intracellular receptor 2 (Homo sapiens) (UniProt Q5BJF2); conditions: Compound concentration 10.0 uM
[45] = biological target: Tyrosine-protein kinase Srms (Homo sapiens) (UniProt Q9H3Y6); conditions: Compound concentration 1000.0 nM

Sequence of Cyclin-G-associated kinase (Homo sapiens) (O14976 whole entry): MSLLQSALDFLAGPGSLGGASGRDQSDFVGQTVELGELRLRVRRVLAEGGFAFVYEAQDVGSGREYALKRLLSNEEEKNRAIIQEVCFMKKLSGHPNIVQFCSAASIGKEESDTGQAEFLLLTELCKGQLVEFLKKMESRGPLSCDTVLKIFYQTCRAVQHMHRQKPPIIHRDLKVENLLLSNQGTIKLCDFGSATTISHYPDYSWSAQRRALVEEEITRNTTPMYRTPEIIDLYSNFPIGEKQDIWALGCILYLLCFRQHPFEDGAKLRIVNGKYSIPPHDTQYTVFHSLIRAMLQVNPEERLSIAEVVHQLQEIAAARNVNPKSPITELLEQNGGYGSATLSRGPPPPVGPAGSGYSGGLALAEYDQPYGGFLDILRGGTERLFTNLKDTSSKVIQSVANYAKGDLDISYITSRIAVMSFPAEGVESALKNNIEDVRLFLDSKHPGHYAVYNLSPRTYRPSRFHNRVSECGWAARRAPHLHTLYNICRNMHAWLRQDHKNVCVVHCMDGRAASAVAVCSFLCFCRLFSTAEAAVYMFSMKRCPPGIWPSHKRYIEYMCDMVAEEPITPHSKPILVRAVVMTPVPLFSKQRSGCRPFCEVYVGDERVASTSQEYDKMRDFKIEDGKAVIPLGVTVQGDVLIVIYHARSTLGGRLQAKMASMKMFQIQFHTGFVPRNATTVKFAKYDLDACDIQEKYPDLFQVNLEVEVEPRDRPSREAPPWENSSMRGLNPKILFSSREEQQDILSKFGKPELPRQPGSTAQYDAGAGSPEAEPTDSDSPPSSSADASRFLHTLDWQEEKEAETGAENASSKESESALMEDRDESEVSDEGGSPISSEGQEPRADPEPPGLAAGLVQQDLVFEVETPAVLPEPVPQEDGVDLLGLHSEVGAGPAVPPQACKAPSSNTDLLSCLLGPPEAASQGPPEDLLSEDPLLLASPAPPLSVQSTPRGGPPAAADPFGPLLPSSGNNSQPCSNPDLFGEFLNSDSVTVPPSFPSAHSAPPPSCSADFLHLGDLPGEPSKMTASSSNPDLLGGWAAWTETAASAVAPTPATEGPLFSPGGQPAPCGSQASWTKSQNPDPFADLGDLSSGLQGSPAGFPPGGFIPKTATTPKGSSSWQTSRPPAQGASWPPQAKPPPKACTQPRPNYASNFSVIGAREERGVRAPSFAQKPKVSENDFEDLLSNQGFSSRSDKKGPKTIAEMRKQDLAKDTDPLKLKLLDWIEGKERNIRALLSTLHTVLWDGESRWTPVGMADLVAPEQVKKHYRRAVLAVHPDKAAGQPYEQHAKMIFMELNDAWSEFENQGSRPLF
Sequence of Uncharacterized serine/threonine-protein kinase SBK3 (Homo sapiens) (P0C264 whole entry): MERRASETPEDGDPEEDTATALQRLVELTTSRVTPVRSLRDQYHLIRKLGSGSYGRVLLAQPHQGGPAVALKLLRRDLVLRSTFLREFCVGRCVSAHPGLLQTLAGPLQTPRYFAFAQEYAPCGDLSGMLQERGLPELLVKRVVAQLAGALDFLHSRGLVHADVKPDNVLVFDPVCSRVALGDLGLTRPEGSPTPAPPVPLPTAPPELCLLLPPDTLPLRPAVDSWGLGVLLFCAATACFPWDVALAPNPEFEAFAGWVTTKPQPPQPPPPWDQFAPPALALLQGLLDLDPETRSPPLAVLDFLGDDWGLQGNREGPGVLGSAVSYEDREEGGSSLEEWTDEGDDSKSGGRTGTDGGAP
Sequence of Calcium/calmodulin-dependent protein kinase kinase 1 (Homo sapiens) (Q8N5S9 whole entry, looked up): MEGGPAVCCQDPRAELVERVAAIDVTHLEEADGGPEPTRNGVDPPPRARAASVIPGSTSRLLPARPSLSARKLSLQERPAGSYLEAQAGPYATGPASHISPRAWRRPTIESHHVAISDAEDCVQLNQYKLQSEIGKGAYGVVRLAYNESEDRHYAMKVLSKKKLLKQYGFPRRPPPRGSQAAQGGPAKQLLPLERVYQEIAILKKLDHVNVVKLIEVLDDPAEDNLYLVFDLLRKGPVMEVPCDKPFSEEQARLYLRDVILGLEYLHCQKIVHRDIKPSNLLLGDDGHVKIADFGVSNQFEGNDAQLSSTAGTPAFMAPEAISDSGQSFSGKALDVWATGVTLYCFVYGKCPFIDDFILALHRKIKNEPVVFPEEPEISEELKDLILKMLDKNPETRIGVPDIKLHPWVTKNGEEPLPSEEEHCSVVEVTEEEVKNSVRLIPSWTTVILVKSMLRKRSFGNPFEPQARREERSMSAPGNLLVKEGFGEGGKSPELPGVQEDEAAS
Sequence of Aurora kinase C (Homo sapiens) (Q9UQB9 whole entry): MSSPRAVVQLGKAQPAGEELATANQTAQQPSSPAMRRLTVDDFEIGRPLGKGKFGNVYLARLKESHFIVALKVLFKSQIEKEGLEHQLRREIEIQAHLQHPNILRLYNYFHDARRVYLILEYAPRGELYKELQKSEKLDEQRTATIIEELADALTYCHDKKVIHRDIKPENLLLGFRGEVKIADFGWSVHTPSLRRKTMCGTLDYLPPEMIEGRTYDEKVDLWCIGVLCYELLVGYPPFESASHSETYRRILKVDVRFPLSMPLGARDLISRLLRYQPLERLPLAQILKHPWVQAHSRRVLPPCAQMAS
Sequence of Calcium/calmodulin-dependent protein kinase type 1G (Homo sapiens) (Q96NX5 whole entry): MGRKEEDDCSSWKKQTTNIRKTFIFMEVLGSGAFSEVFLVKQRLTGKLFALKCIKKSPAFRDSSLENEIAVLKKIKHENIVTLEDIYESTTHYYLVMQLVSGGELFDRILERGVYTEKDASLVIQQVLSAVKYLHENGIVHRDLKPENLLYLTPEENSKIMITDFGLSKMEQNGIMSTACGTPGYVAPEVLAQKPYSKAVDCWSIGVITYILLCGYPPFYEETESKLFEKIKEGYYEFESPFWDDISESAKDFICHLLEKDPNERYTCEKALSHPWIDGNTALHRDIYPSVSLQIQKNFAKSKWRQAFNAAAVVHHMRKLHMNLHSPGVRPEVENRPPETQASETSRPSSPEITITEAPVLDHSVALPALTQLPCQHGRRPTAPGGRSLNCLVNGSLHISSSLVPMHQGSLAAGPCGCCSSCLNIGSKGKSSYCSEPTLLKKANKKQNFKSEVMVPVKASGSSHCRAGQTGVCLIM
Sequence of Tyrosine-protein kinase CSK (Homo sapiens) (P41240 2-450 limits assumed): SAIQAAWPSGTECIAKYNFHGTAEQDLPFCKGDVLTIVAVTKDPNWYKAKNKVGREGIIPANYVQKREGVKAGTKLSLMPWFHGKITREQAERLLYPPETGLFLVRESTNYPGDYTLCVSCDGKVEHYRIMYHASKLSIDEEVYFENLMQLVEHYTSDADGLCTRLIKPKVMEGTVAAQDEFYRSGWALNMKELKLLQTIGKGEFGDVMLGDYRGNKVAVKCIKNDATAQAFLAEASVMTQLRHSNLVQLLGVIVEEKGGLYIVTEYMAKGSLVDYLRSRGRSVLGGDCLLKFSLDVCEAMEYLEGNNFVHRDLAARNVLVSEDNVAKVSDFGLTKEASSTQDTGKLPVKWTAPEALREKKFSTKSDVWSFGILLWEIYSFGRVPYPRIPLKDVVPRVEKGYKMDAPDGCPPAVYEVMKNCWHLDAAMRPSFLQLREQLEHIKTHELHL
Sequence of Dual specificity protein kinase CLK4 (Homo sapiens) (Q9HAZ1 whole entry, looked up): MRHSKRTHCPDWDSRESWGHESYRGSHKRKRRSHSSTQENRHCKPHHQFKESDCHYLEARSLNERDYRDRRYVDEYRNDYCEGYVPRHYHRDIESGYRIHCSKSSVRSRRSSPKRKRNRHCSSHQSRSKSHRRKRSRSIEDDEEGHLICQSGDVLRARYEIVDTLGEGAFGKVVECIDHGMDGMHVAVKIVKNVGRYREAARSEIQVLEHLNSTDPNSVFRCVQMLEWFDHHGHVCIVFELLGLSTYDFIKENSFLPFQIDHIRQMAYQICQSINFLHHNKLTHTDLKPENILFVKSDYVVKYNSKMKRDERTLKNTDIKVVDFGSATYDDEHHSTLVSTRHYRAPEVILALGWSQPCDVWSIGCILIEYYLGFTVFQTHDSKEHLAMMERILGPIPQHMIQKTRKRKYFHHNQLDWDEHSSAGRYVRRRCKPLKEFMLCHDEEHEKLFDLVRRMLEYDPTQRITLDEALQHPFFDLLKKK
Sequence of Tyrosine-protein kinase FRK (Homo sapiens) (P42685 whole entry): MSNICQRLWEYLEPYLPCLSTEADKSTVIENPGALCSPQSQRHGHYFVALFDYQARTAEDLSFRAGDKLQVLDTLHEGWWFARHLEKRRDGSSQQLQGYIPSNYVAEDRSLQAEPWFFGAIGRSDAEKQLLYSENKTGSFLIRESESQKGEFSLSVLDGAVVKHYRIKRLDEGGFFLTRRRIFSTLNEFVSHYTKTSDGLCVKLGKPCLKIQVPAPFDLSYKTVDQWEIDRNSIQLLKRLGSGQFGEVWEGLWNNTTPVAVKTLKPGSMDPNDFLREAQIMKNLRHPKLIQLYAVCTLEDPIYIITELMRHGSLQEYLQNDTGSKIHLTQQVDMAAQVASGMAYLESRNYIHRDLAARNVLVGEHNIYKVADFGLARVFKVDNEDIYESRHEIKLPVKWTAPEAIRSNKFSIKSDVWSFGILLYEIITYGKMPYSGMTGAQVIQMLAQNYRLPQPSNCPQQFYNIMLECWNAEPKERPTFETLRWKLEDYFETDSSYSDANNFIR
Sequence of D(1B) dopamine receptor (Homo sapiens) (P21918 whole entry): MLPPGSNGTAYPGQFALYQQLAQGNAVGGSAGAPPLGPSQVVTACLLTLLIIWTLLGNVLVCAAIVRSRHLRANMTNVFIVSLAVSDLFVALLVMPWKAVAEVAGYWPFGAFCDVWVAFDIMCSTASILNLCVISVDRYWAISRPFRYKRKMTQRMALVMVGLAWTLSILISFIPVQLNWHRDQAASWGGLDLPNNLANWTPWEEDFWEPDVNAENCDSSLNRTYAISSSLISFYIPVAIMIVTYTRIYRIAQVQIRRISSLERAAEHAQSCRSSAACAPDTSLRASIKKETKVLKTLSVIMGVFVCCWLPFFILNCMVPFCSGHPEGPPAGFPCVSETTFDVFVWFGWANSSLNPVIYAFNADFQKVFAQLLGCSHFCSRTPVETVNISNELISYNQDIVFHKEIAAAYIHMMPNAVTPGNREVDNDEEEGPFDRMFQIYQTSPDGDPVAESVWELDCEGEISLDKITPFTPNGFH

`FC(F)(F)c1ccc2c(c1)nc(-c1cccnc1)n2C1CC1` [MSD-CYP11B2-Negative-control] was tested, and the residual activity [1] was 93%, the residual activity [2] was 100% and the residual activity [3] was 100%. The residual activity [4] was 100%, the residual activity [5] was 78% and the residual activity [6] was 100%. For the same compound, the residual activity [7] was 100%, the residual activity [8] was 93% and the residual activity [9] was 100%. For the same compound, the residual activity [10] was 100%, the residual activity [11] was 78% and the residual activity [12] was 100%. For the same compound, the residual activity [13] was 79%, the residual activity [14] was 100% and the residual activity [15] was 100%. For the same compound, the residual activity [16] was 100%, the residual activity [17] was 100% and the residual activity [18] was 100%. For the same compound, the residual activity [19] was 100%, the residual activity [20] was 53% and the inhibition [21] was -1.84%. For the same compound, the residual activity [22] was 100%, the residual activity [23] was 100% and the residual activity [24] was 76%. The inhibition [25] was 22.5%, the residual activity [26] was 93% and the residual activity [27] was 100%. The residual activity [28] was 100%, the residual activity [29] was 100% and the residual activity [30] was 100%. For the same compound, the inhibition [31] was 79.7%, the residual activity [32] was 100% and the residual activity [33] was 93%. The residual activity [34] was 90%, the residual activity [35] was 100% and the residual activity [36] was 100%. It also gave a residual activity [37] of 100%, a residual activity [38] of 100% and a residual activity [39] of 77%. It also gave an inhibition [40] of 9.49%, a residual activity [41] of 100% and a residual activity [42] of 100%. For the same compound, the residual activity [43] was 100%, the inhibition [44] was 26.5% and the residual activity [45] was 95%.

Compound `CC(C)(O)c1cncc(-c2nc3ccc(F)cc3n2C2CC2)c1` [MSD-CYP11B2] has a residual activity [1] of 88%, a residual activity [2] of 100% and a residual activity [3] of 100%. The residual activity [4] was 100%, the residual activity [5] was 90% and the residual activity [6] was 100%. For the same compound, the residual activity [7] was 100%, the residual activity [8] was 99% and the residual activity [9] was 100%. It also gave a residual activity [10] of 100%, a residual activity [11] of 90% and a residual activity [12] of 100%. It also gave a residual activity [13] of 96%, a residual activity [14] of 100% and a residual activity [15] of 100%. For the same compound, the residual activity [16] was 100%, the residual activity [17] was 100% and the residual activity [18] was 100%. The residual activity [19] was 100%, the residual activity [20] was 44% and the inhibition [21] was -8.65%. It also gave a residual activity [22] of 100%, a residual activity [23] of 54% and a residual activity [24] of 77%. The inhibition [25] was 21%, the residual activity [26] was 99% and the residual activity [27] was 100%. The residual activity [28] was 100%, the residual activity [29] was 100% and the residual activity [30] was 100%. It also gave an inhibition [31] of 63.1%, a residual activity [32] of 100% and a residual activity [33] of 100%. For the same compound, the residual activity [34] was 84%, the residual activity [35] was 100% and the residual activity [36] was 100%. It also gave a residual activity [37] of 100%, a residual activity [38] of 100% and a residual activity [39] of 80%. The inhibition [40] was 9.54%, the residual activity [41] was 100% and the residual activity [42] was 100%. For the same compound, the residual activity [43] was 100%, the inhibition [44] was 22.7% and the residual activity [45] was 100%.
